Active and inactive are the calls of the source. The rule behind the calls is not given here.
Tested on: CCRIS mutagenicity, Ames/micronucleus/aberration tests
Assay: CCRIS mutagenicity studies
[1] = Test System: AMES SALMONELLA TYPHIMURIUM, Strain/Indicator: TA98, Metabolic Activation: NONE, Method: STANDARD PLATE
[2] = Test System: AMES SALMONELLA TYPHIMURIUM, Strain/Indicator: TA100, Metabolic Activation: NONE, Method: STANDARD PLATE
[3] = Test System: AMES SALMONELLA TYPHIMURIUM, Strain/Indicator: TA1535, Metabolic Activation: NONE, Method: STANDARD PLATE

Measured: mutagenic call

Cc1ccc([N+](=O)[O-])c2c(NCCCN(C)C)c3ccccc3nc12
active: [1] active; positive | [2] active; positive

Nc1ncnc2c1ncn2[C@@H]1O[C@H](CO)[C@@H](O)[C@@H]1O
active: Test System: CHINESE HAMSTER OVARY, Strain/Indicator: CHO/6-THIOGUANINE, Metabolic Activation: NONE active; positive

CC(=O)OCc1cc(C(C)=O)ccc1OC(C)=O
active: Test System: AMES SALMONELLA TYPHIMURIUM, Strain/Indicator: TA100(PKM101), Metabolic Activation: NONE, Method: STANDARD PLATE active; positive | [2] active; positive | Test System: E. COLI, Strain/Indicator: TK701(PKM101), Metabolic Activation: NONE, Method: STANDARD PLATE active; positive | Test System: E. COLI, Strain/Indicator: TK701, Metabolic Activation: NONE, Method: STANDARD PLATE active; positive | Test System: E. COLI, Strain/Indicator: TK702(PKM101), Metabolic Activation: NONE, Method: STANDARD PLATE active; positive
inactive: [3] inactive; negative | Test System: AMES SALMONELLA TYPHIMURIUM, Strain/Indicator: TA1538, Metabolic Activation: NONE, Method: STANDARD PLATE inactive; negative | Test System: E. COLI, Strain/Indicator: TK702, Metabolic Activation: NONE, Method: STANDARD PLATE inactive; negative

C=CC1CO1 (stereo not drawn)
inactive: [1] inactive; negative | Test System: UDS MOUSE SPERM CELL, Strain/Indicator: THY INCORP, Metabolic Activation: IN VIVO, Method: LIQUID SCINTILLATION COUNTING inactive; negative | Test System: UDS RODENT HEPATOCYTES, Strain/Indicator: THY INCORP (NON-S-PHASE), Metabolic Activation: NONE, Method: AUTORADIOGRAPHY inactive; negative
active: End Point: IN VIVO CHROMOSOMAL ABERRATIONS, Test System: BONE MARROW CELLS, Species: MOUSE, Strain/Sex: C57B1/6/MALE, Route: IP INJECTION (ONCE) active; positive | End Point: IN VIVO MICRONUCLEUS, Test System: BONE MARROW POLYCHROMATIC ERYTHROCYTES, Species: MOUSE, Strain/Sex: C57/BL/MALE, Route: INTRAPERITONEAL INJECTION active; positive | End Point: IN VIVO MICRONUCLEUS, Test System: PERIPHERAL BLOOD RETICULOCYTES, Species: MOUSE, Strain/Sex: BALB/C/MALE, Route: IP INJECTION, ONCE active; positive | End Point: IN VIVO MICRONUCLEUS, Test System: SPERMATID, Species: RAT, Strain/Sex: SPRAGUE-DAWLEY/MALE, Route: IP INJECTION active; positive | End Point: IN VIVO MICRONUCLEUS, Test System: SPERMATIDS, Species: MOUSE, Strain/Sex: (102XC3H)F1/MALE, Route: IP INJECTION active; positive only at 14 d and higher dose levels | End Point: IN VIVO MICRONUCLEUS, Test System: SPERMATIDS, Species: MOUSE, Strain/Sex: BALB/C/MALE, Route: IP INJECTION, ONCE active; positive (positive in golgi-phase and at highest dose after 14 or 16 d) | End Point: IN VIVO MICRONUCLEUS, Test System: SPERMATIDS, Species: RAT, Strain/Sex: LEWIS/MALE, Route: IP INJECTION active; positive | End Point: IN VIVO MICRONUCLEUS, Test System: SPLENOCYTES, Species: MOUSE, Strain/Sex: (102XC3H)F1/MALE, Route: IP INJECTION active; positive | End Point: IN VIVO MICRONUCLEUS, Test System: SPLENOCYTES, Species: MOUSE, Strain/Sex: BALB/C, Route: IP active; positive only for 48.8 mg dose at either 2 or 16 d after treatment | End Point: IN VIVO MICRONUCLEUS, Test System: SPLENOCYTES, Species: RAT, Strain/Sex: LEWIS/MALE, Route: IP INJECTION active; positive | Test System: AMES SALMONELLA TYPHIMURIUM, Strain/Indicator: TA100, Metabolic Activation: HAMSTER, LIVER, S-9, AROCLOR 1254 (10%), Method: PREINCUBATION active; positive | Test System: AMES SALMONELLA TYPHIMURIUM, Strain/Indicator: TA100, Metabolic Activation: NONE, Method: PREINCUBATION active; positive | [2] active; positive | Test System: AMES SALMONELLA TYPHIMURIUM, Strain/Indicator: TA100, Metabolic Activation: RAT, LIVER, S-9, AROCLOR 1254 (10%), Method: PREINCUBATION active; positive | Test System: AMES SALMONELLA TYPHIMURIUM, Strain/Indicator: TA100, Metabolic Activation: RAT, LIVER, S-9, AROCLOR 1254, Method: STANDARD PLATE active; positive | Test System: AMES SALMONELLA TYPHIMURIUM, Strain/Indicator: TA1535, Metabolic Activation: HAMSTER, LIVER, S-9, AROCLOR 1254 (10%), Method: PREINCUBATION active; positive | Test System: AMES SALMONELLA TYPHIMURIUM, Strain/Indicator: TA1535, Metabolic Activation: NONE, Method: PREINCUBATION active; positive | [3] active; positive | Test System: AMES SALMONELLA TYPHIMURIUM, Strain/Indicator: TA1535, Metabolic Activation: RAT, LIVER, S-9, AROCLOR 1254 (10%), Method: PREINCUBATION active; positive

CCc1cc(C(C)(C)C)c(O)c(C(C)(C)C)c1
inactive: Test System: AMES SALMONELLA TYPHIMURIUM, Strain/Indicator: TA97, Metabolic Activation: NONE, Method: STANDARD PLATE inactive; negative | Test System: AMES SALMONELLA TYPHIMURIUM, Strain/Indicator: TA97, Metabolic Activation: S-9, Method: STANDARD PLATE inactive; negative | [1] inactive; negative | Test System: AMES SALMONELLA TYPHIMURIUM, Strain/Indicator: TA98, Metabolic Activation: S-9, Method: STANDARD PLATE inactive; negative | [2] inactive; negative | Test System: AMES SALMONELLA TYPHIMURIUM, Strain/Indicator: TA100, Metabolic Activation: S-9, Method: STANDARD PLATE inactive; negative | Test System: AMES SALMONELLA TYPHIMURIUM, Strain/Indicator: TA102, Metabolic Activation: NONE, Method: STANDARD PLATE inactive; negative | Test System: AMES SALMONELLA TYPHIMURIUM, Strain/Indicator: TA102, Metabolic Activation: S-9, Method: STANDARD PLATE inactive; negative | Test System: E.COLI, Strain/Indicator: WP2 (PKM101), Metabolic Activation: NONE, Method: STANDARD PLATE inactive; negative | Test System: E.COLI, Strain/Indicator: WP2 (PKM101), Metabolic Activation: S-9, Method: STANDARD PLATE inactive; negative
